# Results published in patent US20200016163A1, “TREATMENT OF DEMENTIA WITH CANNABINOID AGONISTS” (priority 2017, published 2020).
# Entries after “also recorded” stand apart in the source; their conditions may differ.
# Tests used:
# [1] = system: lesion of cholinergic cells of nucleus basalis magnocellularis in rats (model of irreversible Alzheimer-type dementia); assay: Barnes maze (spatial memory) in rats with 192 IgG-saporin lesion of the nucleus basalis magnocellularis, 1 round of training sessions; type: in vivo, Sprague Dawley rats; conditions: 5 administrations
# Text: The animal model used is the lesion of cholinergic cells of nucleus basalis magnocellularis in rats to cause memory loss that is sustained over time. It is a recognized model of irreversible-type dementia, specifically of irreversible Alzheimer-type dementia.
# (§1) More specifically, a bilateral lesion was generated in the nucleus basalis magnocellularis in the brain of male Sprague Dawley rats (male 150-200 g) by means of stereotaxic coordinates (bregma −1.5 mm anteroposterior, ±3 mm laterodorsal and −8 mm ventral from the surface of the cranium) by injecting toxin 192 IgG-saporin (Merck-Millipore. Ref:MAB390) (SAP, n=30) (135 ng/μl/hemisphere; 0.25 μl/min) dissolved in artificial cerebrospinal fluid (CSF, n=28) (148 mM NaCl, 2.7 mM KCl, […], 1.2 mM CaCl2.2H2O; pH 7.4 adjusted with 1 mM K2HPO4) and the same method was carried out for the lesion control group but in this case only CSF (1 μl/hemisphere) was injected. Finally, as control of the latter, another group of animals was used which only received the injection of the needle and no compound was administered (SHAM, n=7). To stabilize the lesion process, the animals were not handled for one week. […] The compound is dissolved in DMSO:Cremophor:saline according to ratio [1:1:18].
# The test used to evaluate the cognitive deficit of these models was the Barnes maze, which measures spatial memory. It is a circular maze with 20 holes on the periphery and only one of them has an escape box. When the animal finds this box, it is returned to its cage. This method is performed four times a day for four days (16 training sessions). On the fifth day, the hole leading to the escape box is covered and the animal explores the maze for three minutes for the purpose of finding this hole (test). The time in the target quadrant will be evaluated in the test. This parameter indicates if the animal accurately remembers where the escape hole is located because it will spend more time in the quadrant containing said hole (target quadrant). This parameter was analyzed by means of SMART 3.0 video-tracking software. Compared to other types of behavioral tests that evaluate memory in rodents, this test has the advantage that there is no aversive stimulus with which effects relating to fear and anxiety may interfere, which thereby prevents confusing anxiolytic effects with cognitive enhancing effects.
# [2] = system: lesion of cholinergic cells of nucleus basalis magnocellularis in rats (model of irreversible Alzheimer-type dementia); assay: Barnes maze in 192 IgG-saporin lesioned rats, 2 rounds of training sessions (second round with treatment); type: in vivo, Sprague Dawley rats; conditions: SAP* rats with previously shown deficit (SAP*+WIN); new escape hole, 0.5 mg/kg i.p. on 4 training days and test day from day 18
# Protocol: as §1
# The test used to evaluate the cognitive deficit of these models was the Barnes maze, which measures spatial memory. It is a circular maze with 20 holes on the periphery and only one of them has an escape box. When the animal finds this box, it is returned to its cage. […] The time in the target quadrant will be evaluated in the test. […] This parameter was analyzed by means of SMART 3.0 video-tracking software. […]
SMILES,"effect of CB1 antagonist co-administration on the WIN55,212-2 effect, time in the target quadrant, Barnes maze test ([1]; SAP-lesioned rats (SAP+W+SR), SR141716A 0.5 mg/kg together with WIN55,212-2 0.5 mg/kg i.p.)","effect on memory of a control rat (time in the target quadrant), Barnes maze test ([1]; CSF control rats (CSF+W3), 3 mg/kg i.p.)","time in the target quadrant, Barnes maze test, non-lesioned control group ([1]; CSF control rats (CSF+WIN), 0.5 mg/kg i.p. once daily)","time in the target quadrant, Barnes maze test, high dose ([1]; SAP-lesioned rats (SAP+W3), 3 mg/kg i.p.)","time in the target quadrant (memory deficit), Barnes maze test ([1]; SAP-lesioned rats (SAP+WIN), 0.5 mg/kg i.p. once daily, one hour before training/test, 0.5 mg/kg)","ability to remember the escape hole (time in the target quadrant), Barnes maze test [2]"
Cc1c(C(=O)NN2CCCCC2)nn(-c2ccc(Cl)cc2Cl)c1-c1ccc(Cl)cc1 [SR141716A],"reversing the effect produced by treatment with WIN55,212-2 alone",,,,,
"Cc1c(C(=O)c2cccc3ccccc23)c2cccc3c2n1[C@H](CN1CCOCC1)CO3 [WIN55,212-2]",,detrimental for memory,no effect,behave like a control rat,had no memory deficits; also recorded: spends the most amount of time in the target quadrant,capable of remembering it
